Source: publication PMC8398472, “Anticancer Diiron Vinyliminium Complexes: A Structure–Activity Relationship Study” (Pharmaceutics, 2021)
Entries after “also recorded” stand apart in the source; their conditions may differ.

System: A2780 cells
Experiment: Intracellular ROS production, DCFH-DA assay
Type: cell-based, human
Settings: 20 μM, up to 24 h, DCFH-DA fluorescence
Procedure: The intracellular production of reactive oxygen species (ROS) upon treatment of the compounds 3b, 4a, 4c, 5b and 6c was measured by using the DCFH-DA (2′,7′-dichlorodihydrofluorescein diacetate, Merck) assay, based on cellular uptake of the non-fluorescent diacetate following deacetylation by esterases (2′,7′-dichlorodihydrofluorescein, DCFH) and oxidation to the fluorescent dichlorofluorescein (2′,7′-dichlorofluorescein, DCF). A2780 cells were seeded at concentration of 4 × 10^4 cells/well/90 µL of complete growth medium into 96-well plates. After overnight incubation, the cells were treated following manufacturer protocol. 100 µL of a solution containing the fluorogenic probe were added to the culture medium and, after 1 h of incubation with 5% CO2 at 37 °C, the cells were exposed to a final concentration of 20 µM of the tested complexes; H2O2 100 µM was used as a positive control. Stock solutions of compounds were prepared as described above; cells incubated with equal amounts of DMSO in supplemented RPMI were used as control. The fluorescence was measured up to 24 h with an excitation wavelength of 485 nm and with a 535 nm emission filter by Multilabel Counter (PerkinElmer). For each tested compound, assay was performed on triplicate. The data were reported as mean ± standard deviation, statistical differences were analyzed using one-way analysis of variance (ANOVA) and a Tukey test was used for post hoc analysis. A p-value < 0.05 is considered statistically significant.

Row | Substance | Intracellular ROS production
1 | [Fe2Cp2(CO)(μ-CO){μ-η^1:η^3-C^3(Me)C^2(Me)C^1NMe(CH2Ph)}]CF3SO3 [Compound 5b] | appreciable ROS production; also recorded: most effective of the series
2 | [Fe2Cp2(CO)(μ-CO){μ-η^1:η^3-C^3(Me)C^2(Me)C^1NMe(4-C6H4OMe)}]CF3SO3 [Compound 6c] | appreciable ROS production
3 | [Fe2Cp2(CO)(μ-CO){μ-η^1:η^3-C^3(Me)C^2(Me)C^1NMe(Cy)}]CF3SO3 [Compound 4c] | appreciable ROS production
4 | [Fe2Cp2(CO)(μ-CO){μ-η^1:η^3-C^3(Me)C^2HC^1NMe(Cy)}]CF3SO3 [Compound 4a] | appreciable ROS production
5 | [Fe2Cp2(CO)(μ-CO){μ-η^1:η^3-C^3(Ph)C^2HC^1NMe(CH2CH = CH2)}]CF3SO3 [Compound 3b] | appreciable ROS production
